Reference: US10709724B2, “Methods of treating mitochondrial dysfunction” (Ecole Polytechnique Federale de Lausanne (EPFL), priority 2011, dated 2020)

Key:
SIRT1 MEF cells = assay: PJ34 in SIRT1−/− MEFs; assay type: cell-based, mice
Experimental: Cell Culture, Transfection, Adenoviral Infection and Mitochondrial Characterization. HEK293T, MEF and C2C12 cells were cultured in DMEM (4.5 g/l glucose, 10% FCS). PARP-1^+/+ and PARP-1^−/− MEFs were prepared as described in (Menissier-de Murcia et al., 1997). SIRT1 and MEFs were kindly provided by Fred Alt (Chea et al., 2005). SIRT3 MER were established according to standard techniques from conditional SERT3^−/− mice. […] Mitochondrial charge determination was performed as described (Bai et al., 2001) and DNA strand breaks were quantified by TUNEL assays according to the manufacturer's instructions (Millipore).
Immunoprecipitation, SDS-PAGE, Western Blotting. […] Reactions were developed by enhanced chemiluminescence (Amersham, Little Chalfont, UK), PGC-1α, FOXO1 and Ndufa9 acetylation levels were analyzed by immunoprecipitation from cellular or nuclear lysates of tissues with anti-PGC-1α (Millipore), anti-FOXO1 (Cell Signaling, Danvers, Mass., USA) and anti-Ndufa9 (Abcam) antibody followed by Western blot using an acetyl-lysine antibody (Cell Signaling) that was normalized to total PGC-1a/FOXO1/Ndufa9 levels (Lagouge et al., 2006; Rodgers et al., 2005). […] All blots were quantified by densitometry using ImageJ software. […]

[1] = test system: C2C12 myotubes, Hepa1.6 and HEK293T cells; assay: Total intracellular NAD+ content after NR in cell lines; assay type: cell-based, murine and human; settings: 24 hrs
From the text: Murine Hepa1.6 and HEK293T cells were maintained in 4.5 g/L glucose DMEM, 10% FCS. For the transfection of HEK293T cells JetPei was used (Polyplus transfections, Illkirch, France) according to the description of the company. PARP-2 depletion and overexpression took place as described in (Bai et al. 2007).
C2C12 cells were maintained in 4.5 g/L glucose DMEM, 10% FCS and were differentiated in 4.5 g/L glucose DMEM, 2% horse serum for 2 days, when cells were considered myofibers. PARP-2 was depleted from C2C12 cells using lentiviral shRNA system (MISSION Lentiviral Vectors, Sigma-Aldrich). The vectors contained the interfering and control sequences described in (Bai et al. 2007). C2C12 cells were transduced with 20 MOI virus and were selected with […] puromycin. Cells withstanding puromycin selection were subcultured. […] The efficiency of knock-down at the mRNA level was assessed by RT-qPCR.
NAD^+ NAM Determination. NAD^+ levels in cultured cells were determined using a commercial kit (Enzychrom™, BioAssays Systems, CA). For tissue samples NAD^+ and NAM levels were determined as described in (Sauve et al., 2005). […] Clear supernatant was injected onto HPLC C-18 column with 20 mM ammonium acetate eluent to separate NAD^+ and NAM from other cellular components, NAD^+ and NAM peaks (260 nm absorbance) were collected. […]

| Compound | mitochondrial gene expression (SIRT1 MEF cells; SIRT1 MEF cells) | PGC-1α acetylation levels (SIRT1 MEF cells; SIRT1−/− MEFs) | ability to increase intracellular NAD+ compared with NMN and NA ([1]; 0.5 mM) | intracellular NAD+ levels [1] |
| --- | --- | --- | --- | --- |
| CN(C)CC(=O)Nc1ccc2[nH]c(=O)c3ccccc3c2c1 [PJ34] | largely blunted | totally unable to decrease PGC-1α acetylation levels | – | – |
| NC(=O)c1ccc[n+]([C@@H]2O[C@H](CO)[C@@H](O)[C@H]2O)c1 [NR, nicotinamide riboside] | – | – | at least, similar to that of these other precursors | dose-dependently increased intracellular NAD^+ levels |
